Data on three compounds can be found in publication PMC3506384 (Cancer chemotherapy and pharmacology, 2011).

For data set [1] the following is noted: cited from earlier work.
Another data set in a line: clinical. The conditions noted are these: human, plasma; for half-life: intravenous.
The conditions of data set [2]: co-administration of ketoconazole; cited from earlier work.
Data set [3] in a line: Bortezomib plasma pharmacokinetics, non-compartmental, LC-MS/MS.
The conditions of data set [4]: cited from earlier work. This is another data set of the same source.
The nature of the next data set: Phase I dose escalation. Format: in vivo, human.
A short description of data set [5]: Serum anticonvulsant levels in group A patients. In kind it is in vivo, human. The note with it: all 3 patients in group A; at PK sampling on days 2 and 9 of cycle 1.
[6] abbreviates: Day 2, bortezomib 1.0 mg/m^2, group A (taking HEIAs), N 1.
The mark [7] stands for this setting: Day 2, bortezomib 1.0 mg/m^2, group B (not taking HEIAs), N 13, median (range).
[8] abbreviates: Day 2, bortezomib 1.3 mg/m^2, group A (taking HEIAs), N 1.
Where [9] appears, read: Day 2, bortezomib 1.3 mg/m^2, group B (not taking HEIAs), N 6, median (range).
Where [10] appears, read: Day 2, bortezomib 1.5 mg/m^2, group A (taking HEIAs), N 1.
The mark [11] stands for this setting: Day 2, bortezomib 1.5 mg/m^2, group B (not taking HEIAs), N 1.
[12] abbreviates: Day 9, bortezomib 1.0 mg/m^2, group A (taking HEIAs), N 1.
Setting [13] is: Day 9, bortezomib 1.0 mg/m^2, group B (not taking HEIAs), N 13, median (range).
Where [14] appears, read: Day 9, bortezomib 1.3 mg/m^2, group A (taking HEIAs), N 1.
The mark [15] stands for this setting: Day 9, bortezomib 1.3 mg/m^2, group B (not taking HEIAs), N 6, median (range).
[16] abbreviates: patients not taking concomitant HEIAs (group B).

Where two headings read alike, the source gives them in different places.

In the case of `CC(C)C[C@H](NC(=O)[C@H](Cc1ccccc1)NC(=O)c1cnccn1)B(O)O` [bortezomib], the “MTD of single agent bortezomib” value in data set [1] (recurrent malignant glioma patients not taking HEIAs) is 1.7 mg/m^2; in data set [1] (recurrent malignant glioma patients receiving concurrent HEIAs) it was 2.5 mg/m^2. The values for the half-life in the data set “clinical” (1 mg/m2), in “clinical” (1.3 mg/m2) and in “clinical” (1.5 mg/m2) were 11.3 h, 12.4 h and 6.4 h, respectively. In the data set “clinical” (iv, 1 mg/m^2), this compound gave a peak concentration (Cmax) of 65.5 ng/mL. Also, in data set [2], the “mean increase in systemic exposure of bortezomib with ketoconazole” value is on record as 35%. Further, the “AUC 0–∞” value was 20.8 µg·h/L in data set [3] (setting [6]); 33.6 (21–106) ug/l × h in data set [3] (setting [7]); 40.4 µg·h/L in data set [3] (setting [8]); 56.1 (34–97) ug/l × h in data set [3] (setting [9]); 30.6 µg·h/L in data set [3] (setting [10]); 137.4 µg·h/L in data set [3] (setting [11]). The “AUC 0–∞” value in data set [3] (setting [12]) is 30.7 µg·h/L; in data set [3] (setting [13]) it was 86.8 (32–216) ug/l × h; in data set [3] (setting [14]), 72.4 µg·h/L; in data set [3] (setting [15]), 120.0 (78–206) ug/l × h. Further, the CLsys in data set [3] (setting [6]) is 115.7 L/h; in data set [3] (setting [7]) it was 46.6 (17–90) l/h; in data set [3] (setting [8]), 64.4 L/h; in data set [3] (setting [9]), 44.0 (21–81) l/h; in data set [3] (setting [10]), 94.8 L/h; in data set [3] (setting [11]) it was 16.0 L/h. The CLsys in data set [3] (setting [12]) was 78.1 L/h; in data set [3] (setting [13]), 20.7 (9–59) l/h; in data set [3] (setting [14]), 35.9 L/h; in data set [3] (setting [15]), 21.2 (10–33) l/h. Moreover, the “Elimination T1/2” value is given as 12.7 (2–21) h in data set [3] (setting [7]); 18.8 (13–26) h in data set [3] (setting [9]); 15.5 h in data set [3] (setting [12]); 11.1 h in data set [3] (setting [14]); 18.9 (12–41) h in data set [3] (setting [15]). In data set [3] (median percent change, P < 0.01, paired Wilcoxon test, all patients with PK), the “CLsys on day 9 as percent of the CLsys on day 2” value came to 51%. Further, the “rapid initial decline of plasma concentration” value in data set [3] (within the first few hours after the dose, both groups) was 100 fold. The “individual MTD (single agent)” value in data set [4] (bortezomib alone) was 1.6 mg/m^2. Moreover, the “MTD of bortezomib in combination with temozolomide” value was 1.3 mg/m^2 in the data set “Phase I dose escalation” (patients not taking HEIAs, days 2, 5, 9, 12 of a 28-day cycle) and 1.3 mg/m^2/dose in “Phase I dose escalation” (setting [16]). For the same compound, in “Phase I dose escalation” (patients not taking HEIAs, days 2, 5, 9 and 12, every 28 days), the “recommended dose for phase 2 studies, bortezomib in the combination” value is recorded as 1.3 mg/m^2.
For the compound `O=C1NC(=O)C(c2ccccc2)(c2ccccc2)N1` [phenytoin], the serum phenytoin levels entry in data set [5] is reported as “within the therapeutic range”.
Consider `Cn1nnc2c(C(N)=O)ncn2c1=O` [temozolomide], for which, in data set [4] (temozolomide alone), the “individual MTD (single agent)” value is recorded as 200 mg/m^2. Moreover, the “recommended dose for phase 2 studies, temozolomide in the combination” value in the data set “Phase I dose escalation” (patients not taking HEIAs, days 1–5, every 28 days) was 200 mg/m^2. For the same compound, the “MTD of temozolomide in combination with bortezomib” value in the data set “Phase I dose escalation” (patients not taking HEIAs, days 1–5 of a 28-day cycle) was determined as 200 mg/m^2; in “Phase I dose escalation” (setting [16]), 200 mg/m^2/dose.
